{"source": "patent US11884649B2", "about": "“IRE1α inhibitors and uses thereof” (The Regents of the University of California, priority 2020, dated 2024)", "key": {"mouse splenocytes": {"tested_on": "mouse splenocytes", "assay": "LPS-induced differentiation of mouse splenocytes into plasma cells (flow cytometry, IgM ELISA)", "assay_type": "cell-based", "settings": "1 μg/mL LPS, three days, 20 μM-1.25 μM", "procedure": "Therefore, we sought to compare the sensitivity of this process to both KIRAs and PAIRs. To this end, we assessed how KIRA8, KIRA9, and PAIR1 affected the differentiation of lipopolysaccharide (LPS)-treated mouse splenocytes into antibody-secreting plasma cells. Total live number of CD19+ B-cells were assessed and plasma cells were quantified on the basis of B220 downregulation and CD138 expression by flow cytometry (FIGS. 6A-6C, FIG. 24). Concomitantly, secreted IgM was measured in the cell culture supernatants by ELISA (FIG. 6C).\nSplenocyte Isolation and Differentiation\nRed blood cells were lysed with ammonium chloride potassium buffer. Splenocytes were plated at 2.5×10^5 cells/well in a 96-well round bottom plate in complete media. The splenocytes were treated with or without 1 μg/ml LPS 026:b6 (Sigma). […] The splenocytes were incubated for three days in a 37° C., 5% CO2 humidified chamber before collection and staining for flow cytometry.\nCells from the plasma cell assay were collected in a 96-well plate and washed with PBS followed by staining with LIVE/DEAD Fixable Near-IR Dead Cell Stain kit (Invitrogen). Reagent was reconstituted as per manufacturer's instructions, diluted 1:1000 in PBS, and cells were stained in 100 μL on ice for 20 minutes. The cells were then washed with FACS buffer, PBS (Corning), 2 mM EDTA and 2% heat inactivated fetal bovine serum (Omega Scientific). The cells were then stained with 50 μL antibody cocktail consisting of anti-CD19 (BioLegend), anti-CD45R (BD Pharmingen), and anti-CD138 (BioLegend) in FACS buffer on ice for 15 minutes. Cells were resuspended in FACS buffer and combined with an equal volume of 4% paraformaldehyde with 5000 Countbright Absolute Counting Beads (Thermofisher). Stained cells were analyzed on a Fortessa (Becton Dickinson). Data analysis was performed using FlowJo (v10) software (Treestar Inc.).\nMedia supernatants from the in vitro plasma cell differentiation assay were measured for secreted IgM by ELISA. […] Wash buffer (PBS with 0.05% Tween-20 (v/v)) was used for all washing steps and blocked with PBS-BB (PBS without Ca^2+/Mg^2+, 1% BSA (w/v), 0.05% Tween-20 (v/v)). Supernatants from LPS stimulated samples were diluted (1:100) and media only samples were diluted (1:10) in PBS-BB. […] ELISA plates were developed with TMB (Sigma) and stopped with 1N sulfuric acid. Absorbance was measured at 450 nm using spectrophotometer (Spectramax M5, Molecular Devices). Sample IgM concentration values were calculated with SoftMaxPro software."}, "IRE1α*": {"molecular_target": "T1, IRE1α* (Homo sapiens, UniProt O75460)", "T1 construct": "human IRE1α (residues 547-977, IRE1α*) was expressed in SF9 insect cells; His6 (N); made in house; host or cells: Sf9 insect cells (Bac-to-Bac baculovirus)", "T1 sequence (O75460 547-977)": "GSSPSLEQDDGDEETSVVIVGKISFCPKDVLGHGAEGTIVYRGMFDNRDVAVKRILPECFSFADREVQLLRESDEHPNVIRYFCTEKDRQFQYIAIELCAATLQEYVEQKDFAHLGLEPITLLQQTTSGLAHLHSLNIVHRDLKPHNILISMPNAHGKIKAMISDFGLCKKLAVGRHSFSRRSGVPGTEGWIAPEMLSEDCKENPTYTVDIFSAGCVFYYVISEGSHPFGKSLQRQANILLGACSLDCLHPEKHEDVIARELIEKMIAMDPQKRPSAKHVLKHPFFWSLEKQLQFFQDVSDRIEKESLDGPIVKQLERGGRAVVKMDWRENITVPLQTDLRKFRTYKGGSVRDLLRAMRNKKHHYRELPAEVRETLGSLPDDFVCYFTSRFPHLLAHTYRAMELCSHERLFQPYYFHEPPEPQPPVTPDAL", "assay": "In vitro Kdimer assay (dimerization affinity from RNase activity)", "assay_type": "biochemical", "settings": "50 μM inhibitor", "from_the_text": "In order to better understand how to achieve an optimal intermediate RNase activation state through engagement of IRE1α's kinase domain, we first established a quantitative in vitro framework for characterizing how ATP-binding site occupancy influences RNase activity. […] This dimeric state-commonly referred to as the “back-to-back” dimer—is characterized by an extensive interface between the kinase and RNase domains of each IRE1α protomer; this dimeric state can be promoted through mass action as IRE1α concentration is raised. […] Furthermore, ligands that occupy the ATP-binding site of the kinase domain can also stimulate IRE1α's RNase activity by promoting dimer formation. We measured the ability of a purified, recombinant kinase/RNase domain construct of IRE1α—called IRE1α*—to cleave a FRET-quenched XBP1 RNA mini-substrate as a function of IRE1α* concentration, in order to provide a quantitative metric of IRE1α's dimer affinity (Kdimer) (FIG. 1B).\nIRE1α* or dPIRE1α* was titrated from either 2 μM or 4 μM in two-fold serial dilutions in assay buffer (20 mM Tris, 50 mM sodium chloride, 1 mM MgCl2, 2 mM DTT, 0.05% Triton X-100 (v/v), pH 7.5) and incubated with 50 μM inhibitor for 30 minutes at room temperature. Assays were initiated by adding 10 μL of XBP1-mini substrate (5′-Alex647-CAUGUCCGCAGCGCAUG-IowaBlack-FQ-3′ (SEQ ID NO:1); IDT) to the wells at a final concentration of 6 μM and a final well volume of 30 μL. Fluorescence was detected on a Perkin Elmer Envision Microplate Reader at excitation and emission wavelengths of 650 nm and 665 nm. Reaction process was monitored real time in 10-second intervals for at least 30 minutes. Initial rates of XBP1-cleavage were determined for each respective IRE1α* of dpIRE1α* concentration. Specific activity was then determined by dividing rate (RFU/s) by the respective IRE1α* of dpIRE1α* used (RFU/s*[IRE1α]). Kdimer values were determined by fitting these values using the non-linear regression ‘one-site total’ binding parameter in GraphPad Prism analysis software."}, "XBP1 mRNA splicing": {"tested_on": "XBP1 mRNA splicing", "assay": "XBP1 splicing in ER-stressed INS-1 cells", "assay_type": "cell-based, rat", "settings": "brefeldin A (BFA) or thapsigargin (Tg)", "procedure": "RNA Isolation, Quantitative Real-Time PCR, and Primers\nINS-1 or isogenic IRE1α-overexpressing INS-1 cells were plated onto Poly-D-Lysine coated tissue culture plate and grown for 48 hrs. Inhibitors or DMSO were added to the media and incubated for 1 hour at 37° C. with 5% CO2 prior to addition of ER stress agents or Dox as indicated. RNA was isolated from whole cells using either QIAGEN RNeasy Mini kits or Trizol (Invitrogen) and reverse transcribed as above to obtain total cDNA. Then, XBP-1 primers were used to amplify an XBP-1 amplicon spanning the 26 nt intron from the cDNA samples in a regular 3-step PCR. Thermal cycles were: 5 min at 95° C., 30 cycles of 30 s at 95° C., 30 s at 60° C., and 1 min at 72° C., followed by 72° C. for 15 min, and hold at 4° C. Primers used for XBP-1 mRNA splicing were as follows: sense primer XBP1.3 S (5′ […]-3′ (SEQ ID NO:2)) and antisense primer XBP1.2AS (5′-[…]-3′ (SEQ ID NO:3)). PCR fragments were then digested by PstI, resolved on 3% agarose gels, stained with EtBr and quantified by densitometry using ImageJ (NIH). For standard mRNA detection, generally […] total RNA was reverse transcribed using the QuantiTect Reverse Transcription Kit (QIAGEN). For qPCR, we used SYBR green (QIAGEN) and StepOnePlus Real-Time PCR System (Applied Biosystems). Thermal cycles were: 5 min at 95° C., 40 cycles of 15 sec at 95° C., 30 sec at 60° C. […]"}}, "note": "Entries after “also recorded” stand apart in the source; their conditions may differ."}
{"smiles": "Cc1ccc2c(NS(=O)(=O)c3ccccc3Cl)cccc2c1Oc1ncccc1-c1ccnc(N[C@H]2CCCNC2)n1", "note": "[KIRA8, reference compound]", "values": [{"measurement": "IgM secretion", "setting": "mouse splenocytes", "value": "reductions in both plasma cell differentiation and IgM secretion in a dose-dependent manner"}, {"measurement": "plasma cell (CD138+) differentiation", "setting": "mouse splenocytes", "value": "dose-dependently inhibits B-cell differentiation into plasma cells; also recorded: reductions in both plasma cell differentiation and IgM secretion in a dose-dependent manner"}, {"measurement": "dimerization affinity of IRE1α* / formation of RNase active dimers", "setting": "IRE1α*", "value": "unable to form RNase active dimers at any concentration tested"}, {"measurement": "spliced XBP1", "setting": "XBP1 mRNA splicing", "value": "completely suppresses XBP1 splicing; also recorded: almost completely suppressed"}]}
